Structures can show the parent of a compound that is named as a salt.
Columns and labels:
[1] = Bupivacaine release from FeCl3-crosslinked gels (HPLC); type: physicochemical; conditions: FeCl3-crosslinked 4% (w/v) gel with bupivacaine hydrochloride monohydrate, 2% SDS in PBS pH 7.4, 37° C.
Protocol: Sodium hyaluronate (1.4 m3/kg, approx. 800 kDa) and HA derivatives comprising mercaptosuccinic acid and thiophenol, as described in Example 60 and 61, were diluted to 4% (w/v) concentrations in deionized water and mixed with bupivacaine hydrochloride monohydrate (Sigma Aldrich B5274). The polymers were crosslinked using the addition of 2% FeCl3 solution in deionized water for 1:1 linking of carboxyl groups of sodium hyaluronate and chloride of FeCl3 and pH of the gels was adjusted to 6.5-7.5 using 0.25M NaOH solution. The release study buffer applied to each sample consisted of 2% (w/v) sodium dodecyl sulfate (SDS) dissolved in Phosphate buffered saline (pH 7.4, Sigma P3813). All samples were incubated at 37° C. and sampled for testing over 96 hours. For each timepoint, 0.25 ml of the sample was combined with 5 ml MeOH and then filtered through a 0.45 μm filter prior to analyzing using HPLC with a C18 column and 30:70 phosphate buffer (pH 5.0):methanol as mobile phase at 0.6 ml/min flow rate. The chromatogram was collected using a photodiode array detector at 205 nm and the amount of bupivacaine released was calculated from integral value of peak at the retention time of 7.1 minutes based on calibration performed previously.

[2] = Vancomycin hydrochloride release from FeCl3-crosslinked gels (HPLC); type: physicochemical; conditions: FeCl3-crosslinked 4% (w/v) gel, vancomycin hydrochloride 10% (w/w), PBS pH 7.4, 37° C.
Protocol: Sodium hyaluronate (1.4 m3/kg, approx. 800 kDa) and HA derivatives comprising mercaptosuccinic acid and thiophenol, as described in Example 59 and 60 were diluted to 4% (w/v) concentrations in deionized water and mixed with vancomycin hydrochloride (Sigma Aldrich PHR1732) at 10% (w/w) loading. The polymers were crosslinked using the addition of 2% FeCl3 solution (crosslinking agent) in deionized water for 1:1 linking of carboxyl groups of sodium hyaluronate and chloride of FeCl3 and pH of the gels was adjusted to 6.5-7.5 using 0.25M NaOH solution. The release study buffer applied to each sample consisted of phosphate buffered saline (pH 7.4, Sigma P3813). […] For each timepoint, 0.25 ml of the sample was combined with 5 ml H2O and then filtered through a 0.45 μm filter prior to analyzing using HPLC with a C18 column and 85:15 phosphate buffer (pH 3.0):methanol as mobile phase at 0.8 ml/min flow rate. The chromatogram was collected using a photodiode array detector at 205 nm and the amount of vancomycin hydrochloride released was calculated from integral value of peak at the retention time of 11.3 minutes based on calibration performed previously.

Compound	% Bupivacaine Released ([1]; 0 hours) [%]	% Bupivacaine Released ([1]; 1 hour) [%]	% Bupivacaine Released ([1]; 3 hours) [%]	% Bupivacaine Released ([1]; 6 hours) [%]	% Bupivacaine Released ([1]; 24 hours) [%]	% Vancomycin Hydrochloride Release ([2]; 0 hours) [%]	% Vancomycin Hydrochloride Release ([2]; 1 hour) [%]	% Vancomycin Hydrochloride Release ([2]; 3 hours) [%]	% Vancomycin Hydrochloride Release ([2]; 6 hours) [%]	% Vancomycin Hydrochloride Release ([2]; 24 hours) [%]	% Vancomycin Hydrochloride Release ([2]; 96 hours) [%]
CCCCN1CCCCC1C(=O)Nc1c(C)cccc1C (centres unmarked) [Bupivacaine, bupivacaine hydrochloride monohydrate]	0.00	72.54	70.10	71.43	83.46	–	–	–	–	–	–
CN[C@H](CC(C)C)C(=O)N[C@H]1C(=O)N[C@@H](CC(N)=O)C(=O)N[C@H]2C(=O)N[C@H]3C(=O)N[C@H](C(=O)N[C@H](C(=O)O)c4cc(O)cc(O)c4-c4cc3ccc4O)[C@H](O)c3ccc(c(Cl)c3)Oc3cc2cc(c3O[C@@H]2O[C@H](CO)[C@@H](O)[C@H](O)[C@H]2O[C@H]2C[C@](C)(N)[C@H](O)[C@H](C)O2)Oc2ccc(cc2Cl)[C@H]1O [Vancomycin, vancomycin hydrochloride]	–	–	–	–	–	0.00	98.03	95.40	92.08	90.70	72.11

From patent US12351656B2, “Functionalized and crosslinked polymers” (PMIDG, LLC, priority 2017, dated 2025)
